# Reference: the OligoGym collection
# HELM strings list units from the 5' end as sugar, base in round brackets, then linkage (d deoxyribose, r ribose, m 2'-O-methyl, p phosphodiester). Strings are as the collection lists them; they lack the last nucleoside at the 3' end of the tested compound. [moe] = 2'-O-(2-methoxyethyl) (MOE); [sp] = phosphorothioate linkage; [m5C] = 5-methylcytosine
# Molecular target: ATXN2
# Assay: mouse, dose not given
# Conditions: ASO
row,Substance,3 h FOB score
1,RNA1{[moe]([m5C])[sp].[moe](T)p.[moe](T)p.[moe](T)p.[moe](T)[sp].d([m5C])[sp].d(T)[sp].d([m5C])[sp].d(A)[sp].d(T)[sp].d(G)[sp].d(T)[sp].d(G)[sp].[moe]([m5C])p.[moe](G)p.[moe](G)[sp].[moe]([m5C])}$$$$ (last 3' nucleoside missing),5.5 score 0-7
2,RNA1{[moe]([m5C])[sp].[moe](T)p.[moe](T)p.[moe](T)p.[moe](T)p.d([m5C])[sp].d(T)[sp].d([m5C])[sp].d(A)[sp].d(T)[sp].d(G)[sp].d(T)[sp].d(G)[sp].d([m5C])[sp].d(G)[sp].[moe](G)p.[moe]([m5C])p.[moe](A)[sp].[moe](T)}$$$$ (last 3' nucleoside missing),6.25 score 0-7
3,RNA1{[moe]([m5C])[sp].[moe](T)p.[moe](T)p.[moe]([m5C])p.[moe](T)[sp].d([m5C])[sp].d(T)[sp].d(A)[sp].d(T)[sp].d(T)[sp].d(T)[sp].d([m5C])[sp].d(T)[sp].[moe](T)p.[moe](T)p.[moe](G)[sp].[moe](T)}$$$$ (last 3' nucleoside missing),0 score 0-7
4,RNA1{[moe]([m5C])[sp].[moe](T)p.[moe](T)p.[moe]([m5C])p.[moe](T)p.d(G)[sp].d([m5C])[sp].d(T)[sp].d(A)[sp].d(A)[sp].d([m5C])[sp].d(T)[sp].d(G)[sp].d(G)[sp].d(T)[sp].[moe](T)p.[moe](T)p.[moe](G)[sp].[moe]([m5C])}$$$$ (last 3' nucleoside missing),2.5 score 0-7
5,RNA1{[moe]([m5C])[sp].[moe](T)p.[moe](T)p.[moe]([m5C])p.[moe](T)p.d([m5C])[sp].d(T)[sp].d(A)[sp].d(T)[sp].d(T)[sp].d(T)[sp].d([m5C])[sp].d(T)[sp].d(T)[sp].d(T)[sp].[moe](G)p.[moe](T)p.[moe]([m5C])[sp].[moe]([m5C])}$$$$ (last 3' nucleoside missing),1 score 0-7
6,RNA1{[moe]([m5C])[sp].[moe](T)p.[moe]([m5C])p.[moe](T)p.[moe](A)[sp].d(T)[sp].d(T)[sp].d(T)[sp].d([m5C])[sp].d(T)[sp].d(T)[sp].d(T)[sp].d(G)[sp].[moe](T)p.[moe]([m5C])p.[moe]([m5C])[sp].[moe](A)}$$$$ (last 3' nucleoside missing),3.5 score 0-7
7,RNA1{[moe]([m5C])[sp].[moe](T)p.[moe]([m5C])p.[moe](T)p.[moe](A)p.d(T)[sp].d(T)[sp].d(T)[sp].d([m5C])[sp].d(T)[sp].d(T)[sp].d(T)[sp].d(G)[sp].d(T)[sp].d([m5C])[sp].[moe]([m5C])p.[moe](A)p.[moe](G)[sp].[moe](G)}$$$$ (last 3' nucleoside missing),3.5 score 0-7
8,RNA1{[moe]([m5C])[sp].[moe](T)p.[moe]([m5C])p.[moe](T)p.[moe]([m5C])[sp].d([m5C])[sp].d(A)[sp].d(T)[sp].d(T)[sp].d(A)[sp].d(T)[sp].d(T)[sp].d(T)[sp].[moe]([m5C])p.[moe](T)p.[moe](T)[sp].[moe]([m5C])}$$$$ (last 3' nucleoside missing),0 score 0-7
9,RNA1{[moe]([m5C])[sp].[moe](T)p.[moe]([m5C])p.[moe](T)p.[moe]([m5C])[sp].d([m5C])[sp].d(A)[sp].d(T)[sp].d(T)[sp].d(A)[sp].d(T)[sp].d(T)[sp].d(T)[sp].d([m5C])[sp].d(T)[sp].[moe](T)p.[moe]([m5C])p.[moe](A)[sp].[moe]([m5C])}$$$$ (last 3' nucleoside missing),5.75 score 0-7
10,RNA1{[moe]([m5C])[sp].[moe](T)p.[moe]([m5C])p.[moe](T)p.[moe]([m5C])p.[moe]([m5C])p.d(A)[sp].d(T)[sp].d(T)[sp].d(A)[sp].d(T)[sp].d(T)[sp].d(T)[sp].d([m5C])[sp].d(T)[sp].d(T)[sp].[moe]([m5C])p.[moe](A)[sp].[moe]([m5C])}$$$$ (last 3' nucleoside missing),2 score 0-7
11,RNA1{[moe]([m5C])[sp].[moe](T)p.[moe]([m5C])p.[moe](T)p.[moe]([m5C])p.d([m5C])[sp].d(A)[sp].d(T)[sp].d(T)[sp].d(A)[sp].d(T)[sp].d(T)[sp].d(T)[sp].d([m5C])[sp].d(T)[sp].[moe](T)p.[moe]([m5C])p.[moe](A)[sp].[moe]([m5C])}$$$$ (last 3' nucleoside missing),4 score 0-7
12,RNA1{[moe]([m5C])[sp].[moe](T)p.[moe]([m5C])p.[moe](T)p.d([m5C])[sp].d([m5C])[sp].d(A)[sp].d(T)[sp].d(T)[sp].d(A)[sp].d(T)[sp].d(T)[sp].d(T)[sp].d([m5C])[sp].[moe](T)p.[moe](T)p.[moe]([m5C])p.[moe](A)[sp].[moe]([m5C])}$$$$ (last 3' nucleoside missing),3 score 0-7
13,RNA1{[moe]([m5C])[sp].[moe](T)p.[moe]([m5C])p.[moe]([m5C])p.[moe](A)[sp].d(T)[sp].d(T)[sp].d(A)[sp].d(T)[sp].d(T)[sp].d(T)[sp].d([m5C])[sp].d(T)[sp].[moe](T)p.[moe]([m5C])p.[moe](A)[sp].[moe]([m5C])}$$$$ (last 3' nucleoside missing),3.5 score 0-7
14,RNA1{[moe]([m5C])[sp].[moe](T)p.[moe]([m5C])p.[moe]([m5C])p.[moe](A)p.d(T)[sp].d(T)[sp].d(A)[sp].d(T)[sp].d(T)[sp].d(T)[sp].d([m5C])[sp].d(T)[sp].d(T)[sp].d([m5C])[sp].[moe](A)p.[moe]([m5C])p.[moe](G)[sp].[moe](T)}$$$$ (last 3' nucleoside missing),1 score 0-7
15,RNA1{[moe]([m5C])[sp].[moe](T)p.[moe]([m5C])p.[moe]([m5C])p.[moe](T)[sp].d(A)[sp].d(T)[sp].d([m5C])[sp].d(A)[sp].d(T)[sp].d([m5C])[sp].d(A)[sp].d(T)[sp].[moe](T)p.[moe](T)p.[moe](T)[sp].[moe]([m5C])}$$$$ (last 3' nucleoside missing),0 score 0-7
16,RNA1{[moe]([m5C])[sp].[moe](T)p.[moe]([m5C])p.[moe]([m5C])p.[moe](T)p.d(A)[sp].d(T)[sp].d([m5C])[sp].d(A)[sp].d(T)[sp].d([m5C])[sp].d(A)[sp].d(T)[sp].d(T)[sp].d(T)[sp].[moe](T)p.[moe]([m5C])p.[moe]([m5C])[sp].[moe](A)}$$$$ (last 3' nucleoside missing),1 score 0-7
17,RNA1{[moe]([m5C])[sp].[moe]([m5C])[sp].[moe]([m5C])[sp].[moe](A)[sp].[moe](A)[sp].d(A)[sp].d(G)[sp].d(G)[sp].d(G)[sp].d(T)[sp].d(T)[sp].d(A)[sp].d(A)[sp].d(T)[sp].d(T)[sp].[moe](A)[sp].[moe](G)[sp].[moe](G)[sp].[moe](A)}$$$$ (last 3' nucleoside missing),7 score 0-7
18,RNA1{[moe]([m5C])[sp].[moe]([m5C])[sp].[moe]([m5C])[sp].[moe](A)[sp].[moe](T)[sp].d(A)[sp].d([m5C])[sp].d(G)[sp].d([m5C])[sp].d(G)[sp].d(G)[sp].d(T)[sp].d(G)[sp].d(A)[sp].d(A)[sp].[moe](T)[sp].[moe](T)[sp].[moe]([m5C])[sp].[moe](T)}$$$$ (last 3' nucleoside missing),7 score 0-7
19,RNA1{[moe]([m5C])[sp].[moe]([m5C])p.[moe](A)p.[moe](G)p.[moe](A)p.d(A)[sp].d(A)[sp].d(T)[sp].d([m5C])[sp].d(T)[sp].d(G)[sp].d(T)[sp].d(A)[sp].d(A)[sp].d(A)[sp].[moe](T)p.[moe](T)p.[moe]([m5C])[sp].[moe](T)}$$$$ (last 3' nucleoside missing),3 score 0-7
20,RNA1{[moe]([m5C])[sp].[moe]([m5C])p.[moe](A)p.[moe](T)p.[moe](A)p.d(A)[sp].d(T)[sp].d([m5C])[sp].d(T)[sp].d([m5C])[sp].d(A)[sp].d(T)[sp].d(T)[sp].d([m5C])[sp].d(T)[sp].[moe]([m5C])p.[moe](A)p.[moe](T)[sp].[moe](A)}$$$$ (last 3' nucleoside missing),2.25 score 0-7
21,RNA1{[moe]([m5C])[sp].[moe]([m5C])p.[moe](A)p.[moe](T)p.[moe](A)p.d([m5C])[sp].d(G)[sp].d([m5C])[sp].d(G)[sp].d(G)[sp].d(T)[sp].d(G)[sp].d(A)[sp].d(A)[sp].d(T)[sp].[moe](T)p.[moe]([m5C])p.[moe](T)[sp].[moe](G)}$$$$ (last 3' nucleoside missing),4.5 score 0-7
22,RNA1{[moe]([m5C])[sp].[moe]([m5C])p.[moe](G)p.[moe](G)p.[moe](A)p.d(T)[sp].d(T)[sp].d(G)[sp].d(T)[sp].d(T)[sp].d(T)[sp].d(T)[sp].d([m5C])[sp].d(T)[sp].d(T)[sp].[moe]([m5C])p.[moe](A)p.[moe](T)[sp].[moe](T)}$$$$ (last 3' nucleoside missing),1 score 0-7
23,RNA1{[moe]([m5C])[sp].[moe]([m5C])p.[moe](T)p.[moe](A)p.[moe](T)[sp].d([m5C])[sp].d(A)[sp].d(T)[sp].d([m5C])[sp].d(A)[sp].d(T)[sp].d(T)[sp].d(T)[sp].[moe](T)p.[moe]([m5C])p.[moe]([m5C])[sp].[moe](A)}$$$$ (last 3' nucleoside missing),1 score 0-7
24,RNA1{[moe]([m5C])[sp].[moe]([m5C])p.[moe](T)p.[moe](A)p.[moe](T)p.[moe]([m5C])p.d(A)[sp].d(T)[sp].d([m5C])[sp].d(A)[sp].d(T)[sp].d(T)[sp].d(T)[sp].d(T)[sp].d([m5C])[sp].d([m5C])[sp].[moe](A)p.[moe](G)[sp].[moe](G)}$$$$ (last 3' nucleoside missing),1.25 score 0-7
25,RNA1{[moe]([m5C])[sp].[moe]([m5C])p.[moe](T)p.[moe](A)p.[moe](T)p.d([m5C])[sp].d(A)[sp].d(T)[sp].d([m5C])[sp].d(A)[sp].d(T)[sp].d(T)[sp].d(T)[sp].d(T)[sp].d([m5C])[sp].[moe]([m5C])p.[moe](A)p.[moe](G)[sp].[moe](G)}$$$$ (last 3' nucleoside missing),5.5 score 0-7
26,RNA1{[moe]([m5C])[sp].[moe]([m5C])p.[moe](T)p.[moe](A)p.d(T)[sp].d([m5C])[sp].d(A)[sp].d(T)[sp].d([m5C])[sp].d(A)[sp].d(T)[sp].d(T)[sp].d(T)[sp].d(T)[sp].[moe]([m5C])p.[moe]([m5C])p.[moe](A)p.[moe](G)[sp].[moe](G)}$$$$ (last 3' nucleoside missing),1.75 score 0-7
